Laboratory results taken from publication PMC11525561, “Gliflozins, sucrose and flavonoids are allosteric activators of lecithin-cholesterol acyltransferase” (Scientific Reports, 2024).
Like-named read-outs stand apart in the source and are kept apart here.

What was measured:
LCAT [1] = biological target: T1, LCAT (Homo sapiens, UniProt P04180); parameters: method as in PMID 4214409; conditions: blood of diabetes patients before and after insulin treatment; cited from earlier work
T1 sequence (P04180 25-440): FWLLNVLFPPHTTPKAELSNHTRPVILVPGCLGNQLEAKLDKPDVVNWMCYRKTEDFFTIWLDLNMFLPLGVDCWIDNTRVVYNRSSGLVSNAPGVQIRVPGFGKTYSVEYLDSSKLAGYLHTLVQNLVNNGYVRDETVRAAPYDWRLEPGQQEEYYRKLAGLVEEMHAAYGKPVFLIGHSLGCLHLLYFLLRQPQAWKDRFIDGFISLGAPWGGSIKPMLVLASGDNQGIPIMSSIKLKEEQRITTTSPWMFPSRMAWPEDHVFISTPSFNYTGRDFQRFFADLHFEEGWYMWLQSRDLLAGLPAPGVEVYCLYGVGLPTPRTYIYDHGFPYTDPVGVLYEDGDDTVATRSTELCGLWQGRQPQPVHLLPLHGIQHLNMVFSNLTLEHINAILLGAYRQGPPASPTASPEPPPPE

[2] = parameters: method as in PMID 9827549, PMID 19110406; conditions: cited from earlier work
LCAT [3] = biological target: T1, LCAT; experiment: MUP based phospholipase assay; format: biochemical; parameters: 6x histidine-tag (C); made in house; host or cells: 293T cells (ATCC CRL-3216); conditions: for phospholipase efficiency: kcat divided by Km; for increase of phospholipase efficiency / increase of phospholipase Vmax: versus LCAT without compounds
Description: The phospholipase activity of LCAT was evaluated by using MUP as a substrate. The reaction was monitored with the increased fluorescence signal due to the formation of the reaction product MU. The assay was performed at room temperature in reaction buffer (0.1 M sodium phosphate buffer, pH 7.4). 55 µL of LCAT in reaction buffer (0.01 mg/mL) were incubated at 37 °C gently shaken with 0.41 µL of PAM (2 mg/mL in DMSO) or DMSO. After 1 h incubation, 2 µL of each reaction (LCAT + DMSO, LCAT + PAM, reaction buffer + PAM) was added to a black 384 well microplate, low volume (Corning). A MUP stock solution 1 mg/mL in DMSO + 3% Triton X-100 was diluted in a reaction buffer to 0, 10, 40, 60 and 120 µM. 18 µL of each dilution was added to the plate to start the reaction. The MUP stock solution was diluted immediately before use due to the self-hydrolysis of MUP to MU in aqueous buffers. The phospholipase activity of LCAT was monitored by fluorescence signal using Varioskan LUX (Thermo Scientific) plate reader at an excitation wavelength of 340 nm and an emission wavelength of 460 nm every 10 min for 60 min. Background signal due to MUP self-hydrolysis was subtracted from each result. Reactions were performed in triplicates with three independent experiments. Reaction rates were obtained by dividing the data by the assay time. To calculate the amount of MU produced in each reaction, a standard curve was generated from a MU stock solution 100 mM in DMSO and diluted further in reaction buffer. The phospholipase activity (MU mM) was plotted as a function of the MUP concentration. Data were fitted to the Michaelis-Menten kinetic equation by non-linear regression. Apparent Vmax and Km were calculated with OriginPro 2021b (MA, USA) software (version 9.8.5.212), while phospholipase efficiency of each PAM was calculated by dividing kcat by Km. The absence of fluorescence interference coming from PAMs was checked at an excitation wavelength of 340 nm before starting the assay (Supplementary Fig. 3). The phospholipase activities of our PAMs were compared to a positive control compound A (Supplementary Fig. 2)[17].

LCAT [4] = biological target: T1, LCAT; experiment: DHE esterification acyltransferase assay with synthetic HDL (sHDL); format: biochemical; parameters: 6x histidine-tag (C); made in house; host or cells: 293T cells (ATCC CRL-3216); conditions: for Emax / acyltransferase Emax: normalized against LCAT + DMSO; for acyltransferase efficiency: kcat divided by Km
Description: The acyltransferase activity of LCAT was measured by using the fluorescent sterol DHE as a substrate. DHE is integrated in the structure of discoidal synthetic HDL (sHDL) made of peptides (22A) and phospholipids (DMPC). As a consequence of the acyltransferase activity of LCAT, DHE is esterified and stored in the inner core of sHDL as DHE-ester. The esterification is responsible for a shift in the emission wavelength of DHE from 372 nm to 425 nm, allowing the exclusive detection of DHE-ester and monitoring of the reaction.
DHE-sHDL was prepared via thermal cycling. In a glass vial, DHE and DMPC dissolved in chloroform were mixed with a molar ratio of 1:9. The organic solvent was dried with Rotavapor R-200 (BUCHI, Switzerland) at room temperature. The resulting dried thin lipid layer was hydrated with assay buffer (PBS 20 mM + EDTA 1 mM) and vortexed until complete dissolution. The solution was homogenized in a water bath sonicator at room temperature until transparency. 22A peptides dissolved in assay buffer were added to the vial (lipid to protein 2:1 w/w). The solution was incubated via three heating-cooling cycles (50 °C x 3 min; 4 °C x 3 min). […] The acyltransferase activity assay was performed in 384 well low volume black microplates with a final volume of 25 µL. PAM (0.1 mg/mL in DMSO) or DMSO were incubated with LCAT (5 µg/mL in assay buffer + 60 µM albumin (Merck)) 1:100 v/v at 37 °C gently shaken. After 30 min incubation, 10 µL of each reaction (LCAT + DMSO or LCAT + PAM) was added to the plate. To start the reaction, 10 µL of DHE-sHDL solution were added in the wells. The plate was incubated for 1 h at 37 °C gently shaken. Reactions were stopped by the addition of 5 µL of stop solution (assay buffer + 5 units/mL cholesterol oxidase COx + 7% Triton X-100). Plates went through a second round of incubation at 37 °C gently shaken for 1 h to extinguish the residual fluorescence of unesterified DHE. […] DHE-ester fluorescence was detected at an excitation wavelength of 325 nm and an emission wavelength of 425 nm using Varioskan LUX. Reactions without LCAT were used for background subtraction, while reactions without LCAT and stop solution without COx were used to generate a standard curve for DHE (λex 325 nm, λem 372 nm). Reactions were performed in triplicates with three independent experiments. Due to the light sensitivity of DHE, samples were protected from light during the entire preparation and assay. Data was processed via background subtraction, divided by the slope of the standard curve to obtain the amount of DHE-esters in every well and then divided further by the reaction time to determine the rate. The acyltransferase activity (DHE-ester formed) was plotted as a function of the DHE concentration. Data were fitted to the Michaelis-Menten kinetic equation by non-linear regression. Apparent Vmax and Km were calculated using OriginPro 2021b software, while acyltransferase efficiency of each PAM was calculated by dividing kcat by Km. […] The acyltransferase activities of our PAMs were compared to the reference compound A (Supplementary Fig. 2).
PAMs were diluted in DMSO reaching a final concentration of 0.001, 0.01, 0.1, 1 and 10 µM in the wells. Reactions were conducted exactly as above, using the same LCAT concentration and the same volumes. The experiment was performed in triplicate with three independent experiments. Fluorescence signals were processed via background subtraction (DHE-sHDL + buffer + stop solution), divided by the slope of the standard curve to obtain the amount of DHE-esters in every well and then divided further by the reaction time to determine the rate. Data were normalized against no PAM control (LCAT + DMSO). The acyltransferase activity (DHE-ester formed) was plotted as a function of the PAM concentration.

[5] = cited from earlier work
LCAT [6] = tested on: LCAT; parameters: method as in PMID 30479275; conditions: MUP assay; cited from earlier work
[7] = MUP concentration varied, mean ± SEM
[8] = DHE 50 µM, PAM concentration varied
[9] = PAM 3 µM, DHE concentration varied, mean ± SEM
[10] = PAM 3 µM, versus LCAT without compounds
[11] = DHE 50 µM, PAM concentration varied, mean ± SEM of triplicate, read-out: acyltransferase EC50

Row | Structure (SMILES) | phospholipase Vmax (LCAT [3]; [7]) [µM h^− 1] | phospholipase efficiency (LCAT [3]) [µM⁻¹ h⁻¹] | increase of LCAT acyltransferase activity (LCAT [4]; [8]) | Emax (LCAT [4]; DHE 50 µM) [%] | acyltransferase Vmax (LCAT [4]; [9]) [µM h^− 1] | improvement of acyltransferase efficiency (LCAT [4]; [10]) | acyltransferase efficiency (LCAT [4]; PAM 3 µM) [µM⁻¹ h⁻¹] | EC50 (LCAT [4]; [11]) [nM] | other results
1 | OC[C@H]1OC(O)[C@H](O)[C@@H](O)[C@@H]1O (stereo partly shown) [glucose] |  |  |  |  |  |  |  |  | activation of LCAT (LCAT [1]): cannot activate LCAT
2 | OC[C@H]1O[C@@](CO)(O[C@H]2O[C@H](CO)[C@@H](O)[C@H](O)[C@H]2O)[C@@H](O)[C@@H]1O [sucrose] | 8.79 ± 0.81 | 22.43 ± 4.38 | roughly 100% | 176 ± 12.5 | 11.18 ± 0.80 | roughly 100% | 38.88 ± 9.05 |  | oral bioavailability [2]: poor; increase of phospholipase efficiency (LCAT [3]): 180%; EC50 (LCAT [4]): 120 ± 60 nM
3 | CCOc1ccc(Cc2cc([C@@H]3O[C@H](CO)[C@@H](O)[C@H](O)[C@H]3O)ccc2Cl)cc1 [dapagliflozin] | 11.68 ± 1.15 | 12.82 ± 2.80 | roughly 100% | 196 ± 13.4 | 12.13 ± 0.46 |  | 31.54 ± 2.93 | 80 ± 40 | bound to proteins in plasma [5]: 91%; increase of phospholipase Vmax (LCAT [3]): 70%
4 | O=C1c2c(O)cc(O)cc2OC(c2ccc(O)c(O)c2)C1O (stereo not shown) [taxifolin] | 10.71 ± 0.49 | 19.60 ± 0.01 | roughly 100% | 211 ± 21.4 | 13.55 ± 0.67 |  | 22.69 ± 1.94 | 120 ± 40 | 
5 | N#Cc1cnc(N2CCC(c3n[nH]c4c3C(O)(C(F)(F)F)CC(=O)N4)CC2)cc1C(F)(F)F (stereo not shown) [1b] |  |  |  |  |  |  |  |  | phospholipase activity compared to LCAT (LCAT [6]): 230%
6 | Cc1ccc([C@@H]2O[C@H](CO)[C@@H](O)[C@H](O)[C@H]2O)cc1Cc1ccc(-c2ccc(F)cc2)s1 [canagliflozin] | 15.70 ± 0.66 | 34.63 ± 0.97 | 150% |  | 14.78 ± 0.34 | roughly 100% | 44.46 ± 2.43 | 80 ± 20 | bound to proteins in plasma [5]: 99%; Km (LCAT [3]; [7]): 22.7 ± 0.95 µM; increase of phospholipase Vmax (LCAT [3]): 130%; increase of phospholipase efficiency (LCAT [3]): 340%; acyltransferase Emax (LCAT [4]; DHE 50 µM): 254.34±23.72%; Km (LCAT [4]; [9]): 8.37 ± 0.57 µM; increase of acyltransferase Vmax (LCAT [4]; [10]): 70%
7 | COC(=O)Nc1nc2ccc(C(=O)c3ccccc3)cc2[nH]1 [mebendazole] | 7.95 ± 1.90 | 6.28 ± 1.06 | no effect |  | 6.58 ± 0.26 |  | 18.92 ± 2.45 |  | effect on acyltransferase activity at 21.6 µM DHE (LCAT [4]; 21.6 µM DHE, PAM 3 µM): inhibited activity slightly; acyltransferase EC50 (LCAT [4]; DHE 50 µM, PAM concentration varied, mean ± SEM of triplicate): no effect; acyltransferase Emax (LCAT [4]; DHE 50 µM): no effect
8 | O=c1cc(-c2ccc(O)c(O)c2)oc2cc(O)cc(O)c12 [luteolin] | 10.91 ± 1.50 | 17.11 ± 4.72 | roughly 100% | 191 ± 16.1 | 11.71 ± 0.43 | roughly 100% | 36.95 ± 2.13 | 100 ± 10 | 
